The record followed here is PubChem BioAssay (NCI).

“And” between values parts separate entries of the source, which are not always exact repeats. Equal entries are not always repeated.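 How tested: cells in 96-well plates exposed to compound for 48 hours at five concentrations. GI50 = concentration required for 50% inhibition of growth. The concentration for full growth arrest is given as TGI.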

For orientation: GI50 means the concentration at which growth is held to half of that of the control. A word on the TGI: it is the concentration at which net growth stops. A lower TGI goes with more potent growth arrest.

Some test systems named below: COLO 205 colon; DU-145 prostate; HCC-2998 colon; HCT-116 colon; HL-60(TB) leukemia; HOP-62 NSCLC; LOX IMVI melanoma; MCF7 breast; NCI-H23 lung; SK-MEL-2 melanoma.
Assay in all cases: DTP human tumour cell line panel, 48 h

With `O=C1C(=O)c2c(nc3ccc(Cl)cn23)-c2ccccc21`, the GI50 in the experiment on COLO 205 colon is 1.79 µM; in the experiment with DU-145 prostate it was 0.223 µM; with HCC-2998 colon, 2.06 µM; with HCT-116 colon, 0.311 µM; with HL-60(TB) leukemia it was 0.235 µM; with HOP-62 NSCLC, 0.666 µM. Besides, the GI50 was 0.216 µM in the experiment with LOX IMVI melanoma, 0.167 µM in the experiment with MCF7 breast, 0.324 µM with NCI-H23 lung and 0.432 µM in the experiment with SK-MEL-2 melanoma. Further, the concentration for total growth inhibition (TGI) with COLO 205 colon was 3.54 µM; with DU-145 prostate, 0.452 µM; with HCC-2998 colon, 3.96 µM; in the experiment with HCT-116 colon, 3.73 µM; in the experiment with HOP-62 NSCLC it was 1.66 µM; in the experiment with LOX IMVI melanoma it was 0.498 µM. For the same compound, the TGI in the experiment with MCF7 breast was 0.356 µM; with NCI-H23 lung it was 1.47 µM; in the experiment with SK-MEL-2 melanoma it was 1.61 µM.
With `Cc1ccc(C(=O)Nc2cccc(C(F)(F)F)c2)cc1Nc1nc(-c2cccnc2)nc2c1cnn2C`, the GI50 is 1.22 µM and 0.575 µM in the experiment on COLO 205 colon; 5.5 µM and 3.09 µM in the experiment with DU-145 prostate; 1.11 µM and 0.632 µM in the experiment with HCC-2998 colon; 0.917 µM and 0.377 µM in the experiment on HCT-116 colon; 0.423 µM and 0.273 µM in the experiment on HL-60(TB) leukemia; 2.62 µM and 1.04 µM with HOP-62 NSCLC. Also, the GI50 with LOX IMVI melanoma was 1.4 µM and 0.704 µM; in the experiment with MCF7 breast, 2.42 µM and 1.98 µM; in the experiment on NCI-H23 lung it was 1.81 µM and 1.3 µM; in the experiment with SK-MEL-2 melanoma it was 0.721 µM and 0.367 µM. In addition, the TGI in the experiment with COLO 205 colon is 5.79 µM and 3.65 µM; in the experiment with DU-145 prostate it was 26.7 µM and > 10 µM; with HCC-2998 colon it was 3.35 µM and 2.62 µM; in the experiment on HCT-116 colon, 2.87 µM and 3.67 µM; with HL-60(TB) leukemia, 3.59 µM and 3.57 µM; in the experiment on HOP-62 NSCLC it was 15.2 µM and > 10 µM. The TGI with LOX IMVI melanoma is 3.72 µM and 2.61 µM; in the experiment on MCF7 breast, 7.65 µM and 6.24 µM; in the experiment with NCI-H23 lung, 12.8 µM and 9.54 µM; in the experiment on SK-MEL-2 melanoma it was 5.03 µM and 2.07 µM.
In the case of `c1ccc2c(c1)c(NCCCCN1CCCCC1)cc1c3ccccc3c(NCCCCN3CCCCC3)cc21`, the GI50 is 21.9 µM in the experiment on COLO 205 colon; 16.3 µM with DU-145 prostate; 18.2 µM in the experiment with HCC-2998 colon; 5.22 µM with HCT-116 colon; 19.7 µM with HL-60(TB) leukemia; 10.9 µM in the experiment on HOP-62 NSCLC. Further, the GI50 in the experiment with LOX IMVI melanoma was 11.2 µM; with MCF7 breast it was 4.76 µM; in the experiment on NCI-H23 lung, 20.5 µM; with SK-MEL-2 melanoma it was 69.3 µM. In addition, the TGI with COLO 205 colon was 47.7 µM; in the experiment on DU-145 prostate it was 46.2 µM; in the experiment with HCC-2998 colon it was 41.6 µM; in the experiment with HCT-116 colon, 32.7 µM; in the experiment with HL-60(TB) leukemia, over 100 µM; in the experiment with HOP-62 NSCLC, 26 µM. Moreover, the TGI with LOX IMVI melanoma is 28.2 µM; in the experiment with MCF7 breast, 23.2 µM; with NCI-H23 lung, 44.5 µM; with SK-MEL-2 melanoma, over 100 µM.
`Cc1cc2c3ccc(C)[n+](C)c3ccc2n1C`: the GI50 is 1.75 µM in the experiment on COLO 205 colon; 5.09 µM in the experiment with DU-145 prostate; 2.6 µM with HCC-2998 colon; 2.31 µM in the experiment with HCT-116 colon; 1.92 µM in the experiment with HL-60(TB) leukemia; 2.8 µM in the experiment with HOP-62 NSCLC. The GI50 was 5.05 µM in the experiment with LOX IMVI melanoma, 4.07 µM in the experiment on MCF7 breast, 2.04 µM in the experiment on NCI-H23 lung and 7.56 µM in the experiment on SK-MEL-2 melanoma. Further, the TGI with COLO 205 colon came out at 5.52 µM; in the experiment on DU-145 prostate it was 51.5 µM; in the experiment with HCC-2998 colon, 19.8 µM; in the experiment with HCT-116 colon, 33.1 µM; with HL-60(TB) leukemia, 18.7 µM; in the experiment with HOP-62 NSCLC, 18.8 µM. In addition, the TGI worked out at 30.2 µM in the experiment on LOX IMVI melanoma, 90 µM with MCF7 breast, 29.2 µM in the experiment with NCI-H23 lung and 25 µM in the experiment with SK-MEL-2 melanoma.
In the case of `O=C(C1CCCCC1)[C@@H]1[C@]2(C(=O)NC3CCCCC32)[C@@H]2CCCN2[C@@]12C(=O)NC1CCC(Cl)CC12` (some centres undefined), the GI50 in the experiment on COLO 205 colon was 158 µM; in the experiment on DU-145 prostate, 128 µM; with HCC-2998 colon, 135 µM; with HCT-116 colon it was 71.6 µM; in the experiment on HL-60(TB) leukemia it was 35.3 µM; in the experiment with HOP-62 NSCLC it was 123 µM. For the same compound, the GI50 in the experiment on LOX IMVI melanoma was 103 µM; with MCF7 breast it was 41.8 µM; in the experiment on NCI-H23 lung it was 119 µM; in the experiment with SK-MEL-2 melanoma, 147 µM. For the same compound, the concentration for total growth inhibition (TGI) in the experiment on COLO 205 colon turned out to be 323 µM; in the experiment on DU-145 prostate, 259 µM; in the experiment with HCC-2998 colon, 293 µM; with HCT-116 colon, 208 µM; with HL-60(TB) leukemia it was 176 µM; in the experiment on HOP-62 NSCLC, 287 µM. Moreover, the TGI is 253 µM in the experiment with LOX IMVI melanoma, 185 µM with MCF7 breast, 274 µM in the experiment with NCI-H23 lung and 321 µM in the experiment with SK-MEL-2 melanoma.
